Here are results for 33 compounds from patent publication US11339144B2 (Navitor Pharmaceuticals, Inc., priority 2017, dated 2022).

The target in test [1] is HA-GST-Rheb (GTP-γ-S loaded) activating mTORC1 (Homo sapiens (Human), UniProt Q15382). The test can be described thus: Rheb-dependent in vitro kinase assay (Rheb-IVK; LanthaScreen or Western readout). Type of test: biochemical. To be noted: Rheb-dependent in vitro kinase assay; read-out: IVK IC50. On the technique in general: TR-FRET usually uses a lanthanide donor and a delayed reading to cut background.
Sequence of HA-GST-Rheb (GTP-γ-S loaded) activating mTORC1 (Q15382 1-181): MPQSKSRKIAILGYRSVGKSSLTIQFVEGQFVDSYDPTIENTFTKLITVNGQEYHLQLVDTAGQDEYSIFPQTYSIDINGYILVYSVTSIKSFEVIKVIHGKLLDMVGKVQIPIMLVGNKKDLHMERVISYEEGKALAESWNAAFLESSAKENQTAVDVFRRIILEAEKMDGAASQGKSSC

The target of a further test is Rheb (Homo sapiens (Human), UniProt Q15382). The test can be described thus: Affinity Selection Mass Spectrometry (ASMS). Type of test: binding. The note with it: affinity (R3/R0) in Affinity Selection Mass Spectrometry assay. Put shortly: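 Affinity selection used 2 μM compound with 60 μM Rheb and 180 μM GDP for 30 min at room temperature. After 10 kDa ultrafiltration washes, protein was denatured in MeCN and bound compound quantified by C18 UPLC with Q-TOF MS, against a no-protein control.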
Sequence of Rheb (Q15382 1-169 limits assumed): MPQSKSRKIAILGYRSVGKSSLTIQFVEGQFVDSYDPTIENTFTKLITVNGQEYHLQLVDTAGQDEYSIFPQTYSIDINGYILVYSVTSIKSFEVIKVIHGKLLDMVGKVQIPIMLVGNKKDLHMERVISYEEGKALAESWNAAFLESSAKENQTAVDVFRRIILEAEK

The structures appear in SMILES notation.

As usually defined, the IC50 is the midpoint of a concentration-inhibition curve. With `O=C(Nc1ccc(N2CCN(Cc3ccccc3)CC2)c(F)c1)c1cc2c(Sc3ccc(Cl)cc3Cl)cc(Cl)cc2[nH]1` [I-91, N-(4-(4-benzylpiperazin-1-yl)-3-fluorophenyl)-6-chloro-4-(2,4-dichlorophenylthio)-1H-indole-2-carboxamide], the IC50 in test [1] was in the range of 10 to 100 µM. At Rheb, the “ASMS (R3/R0)” value was “B (an affinity (R3/R0) between 100% and 20%)”.
As for `Nc1ccc(N2CCN(C(=O)c3cc4c(Sc5ccc(Cl)cc5Cl)cc(Cl)cc4[nH]3)CC2)cc1F` [I-92, (4-(4-amino-3-fluorophenyl)piperazin-1-yl)(6-chloro-4-(2,4-dichlorophenylthio)-1H-indol-2-yl)methanone], the IC50 in test [1] fell in the range of 10 to 100 µM. For the same compound, the “ASMS (R3/R0)” value on Rheb is “B (an affinity (R3/R0) between 100% and 20%)”.
In the case of `CN1CCCN(c2ccc(NC(=O)c3cc4c(Sc5ccc(Cl)cc5Cl)cc(Cl)cc4[nH]3)cc2F)CC1` [I-93, 6-chloro-4-(2,4-dichlorophenylthio)-N-(3-fluoro-4-(4-methyl-1,4-diazepan-1-yl)phenyl)-1H-indole-2-carboxamide], in test [1], the IC50 is under 10 µM. The “ASMS (R3/R0)” value at Rheb is recorded as “A (an affinity (R3/R0)>100%)”.
As to `O=C(O)c1cc2c(SCc3ccc(Cl)cc3)cc(SCc3ccc(Cl)cc3)cc2[nH]1` [I-94, 4,6-bis(4-chlorobenzylthio)-1H-indole-2-carboxylic acid], the IC50 in test [1] was under 10 µM. Further, the “ASMS (R3/R0)” value at Rheb is “B (an affinity (R3/R0) between 100% and 20%)”.
For `CC(C)(C)OC(=O)c1ccc(Cn2c(C(=O)O)cc3c(Cl)cc(Sc4ccc(Cl)c(Cl)c4)cc32)cc1` [I-95, 1-(4-(tert-butoxycarbonyl)benzyl)-4-chloro-6-(3,4-dichlorophenylthio)-1H-indole-2-carboxylic acid], the IC50 in test [1] was in the range of 10 to 100 µM. For the same compound, at Rheb, the “ASMS (R3/R0)” value is “B (an affinity (R3/R0) between 100% and 20%)”.
Take `CN1CCN(c2ccc(NC(=O)c3cc4c(Br)cc(Sc5ccc(Cl)c(Cl)c5)cc4[nH]3)cc2)CC1` [I-96, 4-bromo-6-(3,4-dichlorophenylthio)-N-(4-(4-methylpiperazin-1-yl)phenyl)-1H-indole-2-carboxamide]: the IC50 in test [1] fell in the range of 10 to 100 µM. The “ASMS (R3/R0)” value on Rheb is “A (an affinity (R3/R0)>100%)”.
With `CN1CCC(CCNC(=O)c2cc3c(Br)cc(Sc4ccc(Cl)c(Cl)c4)cc3[nH]2)CC1` [I-97], the IC50 in test [1] was over 100 µM. The “ASMS (R3/R0)” value at Rheb is “B (an affinity (R3/R0) between 100% and 20%)”.
With `O=C(O)c1cc2c(Sc3ccc(Br)cc3)cc(Cl)cc2[nH]1` [I-98, 4-(4-bromophenylthio)-6-chloro-1H-indole-2-carboxylic acid], in test [1], the IC50 was in the range of 10 to 100 µM. On Rheb, the “ASMS (R3/R0)” value is “B (an affinity (R3/R0) between 100% and 20%)”.
As to `COC(=O)c1cc2c(Sc3ccc(Br)cc3)cc(Cl)cc2[nH]1` [I-99], in test [1], the IC50 is over 100 µM. On Rheb, the “ASMS (R3/R0)” value is “B (an affinity (R3/R0) between 100% and 20%)”.
For `O=C(O)c1cc2c(Cl)cc(Sc3ccc(Cl)c(Cl)c3)cc2[nH]1` [I-100, 4-chloro-6-(3,4-dichlorophenylthio)-1H-indole-2-carboxylic acid], in test [1], the IC50 is under 10 µM. The “ASMS (R3/R0)” value at Rheb was “B (an affinity (R3/R0) between 100% and 20%)”.
On to `CC(C)NC(=O)c1ccc(Cn2c(C(=O)O)cc3c(Br)cc(Sc4ccc(Cl)c(Cl)c4)cc32)cc1` [I-101], for which the IC50 in test [1] was over 100 µM. Further, on Rheb, the “ASMS (R3/R0)” value was “B (an affinity (R3/R0) between 100% and 20%)”.
As to `O=C(O)c1cc2c(Sc3ccc(Cl)cc3Cl)cc(Cl)cc2n1Cc1ccc(Br)cc1` [I-103], the IC50 in test [1] is over 100 µM. Also, the “ASMS (R3/R0)” value at Rheb is “B (an affinity (R3/R0) between 100% and 20%)”.
For the compound `O=C(c1cc2c(Sc3ccc(Cl)cc3Cl)cc(Cl)cc2[nH]1)N1CCNCC1` [I-105, (6-chloro-4-(2,4-dichlorophenylthio)-1H-indol-2-yl)(piperazin-1-yl)methanone], the IC50 in test [1] fell in the range of 10 to 100 µM. In addition, on Rheb, the “ASMS (R3/R0)” value is “B (an affinity (R3/R0) between 100% and 20%)”.
For the compound `O=S(=O)(c1cccnc1)n1ccc2c(Sc3ccc(Cl)cc3)cc(Cl)cc21` [I-107], the IC50 in test [1] is over 100 µM. Further, the “ASMS (R3/R0)” value at Rheb is “C (an affinity (R3/R0)<20%)”.
Turning to `O=C1CCc2ccc(Oc3cc(Cl)cc4[nH]c(C(=O)O)cc34)cc2N1` [I-108, 6-chloro-4-(2-oxo-1,2,3,4-tetrahydroquinolin-7-yloxy)-1H-indole-2-carboxylic acid], the IC50 in test [1] fell in the range of 100 to 300 µM. In addition, the “ASMS (R3/R0)” value on Rheb was “B (an affinity (R3/R0) between 100% and 20%)”.
As for `CC(C)(C)OC(=O)c1ccc(Cn2c(C(=O)O)cc3c(Br)cc(Sc4ccc(Cl)c(Cl)c4)cc32)cc1` [I-109, 4-Bromo-1-(4-(tert-butoxycarbonyl)benzyl)-6-(3,4-dichlorophenylthio)-1H-indole-2-carboxylic acid], in test [1], the IC50 lay in the range of 10 to 100 µM. Besides, the “ASMS (R3/R0)” value on Rheb was “B (an affinity (R3/R0) between 100% and 20%)”.
Regarding `CN1CCC(CCNC(=O)c2cc3c(Br)cc(Sc4ccc(Cl)c(Cl)c4)cc3n2Cc2ccc(C(=O)OC(C)(C)C)cc2)CC1` [I-110], the IC50 in test [1] was over 100 µM. The “ASMS (R3/R0)” value at Rheb is “C (an affinity (R3/R0)<20%)”.
With `CN1CCN(c2ccc(NC(=O)c3cc4c(Sc5ccc(Cl)cc5Cl)cc(Cl)cc4[nH]3)cc2Cl)CC1` [I-111, 6-chloro-N-(3-chloro-4-(4-methylpiperazin-1-yl)phenyl)-4-(2,4-dichlorophenylthio)-1H-indole-2-carboxamide], in test [1], the IC50 was under 10 µM. Further, the “ASMS (R3/R0)” value at Rheb was “C (an affinity (R3/R0)<20%)”.
With `CN1CCN(c2ccc(NC(=O)c3cc4c(Sc5ccc(Cl)cc5Cl)cc(Cl)cc4[nH]3)cc2C#N)CC1` [I-112, 6-chloro-N-(3-cyano-4-(4-methylpiperazin-1-yl)phenyl)-4-(2,4-dichlorophenylthio)-1H-indole-2-carboxamide], the IC50 in test [1] is under 10 µM. Also, on Rheb, the “ASMS (R3/R0)” value was “C (an affinity (R3/R0)<20%)”.
For `CN1CCN(c2ccc(NC(=O)c3cc4c(Sc5ccc(Cl)cc5Cl)cc(Cl)cc4[nH]3)cc2F)CC1` [I-113, 6-chloro-4-(2,4-dichlorophenylthio)-N-(3-fluoro-4-(4-methylpiperazin-1-yl)phenyl)-1H-indole-2-carboxamide], in that order: under 10 µM and “C (an affinity (R3/R0)<20%)”.
Regarding `CN1CCC(NC(=O)c2cc3c(Sc4ccc(Cl)cc4Cl)cc(Cl)cc3[nH]2)CC1` [I-114], in test [1], the 50% inhibitory concentration (IC50) was over 100 µM. For the same compound, the “ASMS (R3/R0)” value at Rheb is “B (an affinity (R3/R0) between 100% and 20%)”.
For `CN(C)CCNC(=O)c1cc2c(Sc3ccc(Cl)cc3Cl)cc(Cl)cc2[nH]1` [I-115, 6-chloro-4-(2,4-dichlorophenylthio)-N-(2-(dimethylamino)ethyl)-1H-indole-2-carboxamide], the IC50 in test [1] was 10 to 100 µM. For the same compound, the “ASMS (R3/R0)” value on Rheb is “B (an affinity (R3/R0) between 100% and 20%)”.
`OCc1cc2c(Sc3ccc(Oc4ccccc4)cc3)cc(Cl)cc2[nH]1` [I-116, (6-chloro-4-(4-phenoxyphenylthio)-1H-indol-2-yl)methanol]: the IC50 in test [1] is under 10 µM. The “ASMS (R3/R0)” value at Rheb was “B (an affinity (R3/R0) between 100% and 20%)”.
Consider `O=C(NC1CCN(Cc2ccccc2)CC1)c1cc2c(Sc3ccc(Cl)cc3Cl)cc(Cl)cc2[nH]1` [I-117], for which, in test [1], the IC50 is over 3 µM. In addition, the “ASMS (R3/R0)” value at Rheb is recorded as “C (an affinity (R3/R0)<20%)”.
Regarding `O=C(O)c1cc2c(Sc3ccc(Oc4ccccc4)cc3)cc(Cl)cc2[nH]1` [I-118, 6-chloro-4-(4-phenoxyphenylthio)-1H-indole-2-carboxylic acid], the IC50 in test [1] was under 10 µM. In addition, the “ASMS (R3/R0)” value at Rheb was “B (an affinity (R3/R0) between 100% and 20%)”.
Take `O=C(NCCN1CCN(c2ccccc2)CC1)c1cc2c(Sc3ccc(Cl)cc3Cl)cc(Cl)cc2[nH]1` [I-119]: the IC50 in test [1] was over 100 µM. On Rheb, the “ASMS (R3/R0)” value is “B (an affinity (R3/R0) between 100% and 20%)”.
`CN1CCN(c2cccc(NC(=O)c3cc4c(Sc5ccc(Cl)cc5Cl)cc(Cl)cc4[nH]3)c2)CC1` [I-121, 6-chloro-4-(2,4-dichlorophenylthio)-N-(3-(4-methylpiperazin-1-yl)phenyl)-1H-indole-2-carboxamide]: the IC50 in test [1] is under 10 µM. Further, the “ASMS (R3/R0)” value on Rheb is “B (an affinity (R3/R0) between 100% and 20%)”.
On to `OCc1cc2c(Sc3cccc(OC(F)(F)F)c3)cc(Cl)cc2[nH]1` [I-122, (6-chloro-4-(3-(trifluoromethoxy)phenylthio)-1H-indol-2-yl)methanol], for which, in test [1], the IC50 is under 10 µM. Moreover, at Rheb, the “ASMS (R3/R0)” value is “B (an affinity (R3/R0) between 100% and 20%)”.
Consider `OCc1cc2c(Sc3ccc(OC(F)(F)F)cc3)cc(Cl)cc2[nH]1` [I-123, (6-chloro-4-(4-(trifluoromethoxy)phenylthio)-1H-indol-2-yl)methanol], for which the IC50 in test [1] was under 10 µM. At Rheb, the “ASMS (R3/R0)” value was “B (an affinity (R3/R0) between 100% and 20%)”.
`O=C(O)c1cc2c(Oc3ccc(C4CCCCC4)cc3)cc(Cl)cc2[nH]1` [I-125, 6-chloro-4-(4-cyclohexylphenoxy)-1H-indole-2-carboxylic acid]: the IC50 in test [1] is under 10 µM. Further, at Rheb, the “ASMS (R3/R0)” value was “B (an affinity (R3/R0) between 100% and 20%)”.
As to `O=C(O)c1cc2c(Sc3cccc(OC(F)(F)F)c3)cc(Cl)cc2[nH]1` [I-126, 6-chloro-4-(3-(trifluoromethoxy)phenylthio)-1H-indole-2-carboxylic acid], in test [1], the IC50 lay in the range of 10 to 100 µM. At Rheb, the “ASMS (R3/R0)” value is “B (an affinity (R3/R0) between 100% and 20%)”.
For `OCc1cc2c(Oc3ccc(C4CCCCC4)cc3)cc(Cl)cc2[nH]1` [I-127, (6-chloro-4-(4-cyclohexylphenoxy)-1H-indol-2-yl)methanol], in test [1], the IC50 was under 10 µM. Moreover, on Rheb, the “ASMS (R3/R0)” value was “B (an affinity (R3/R0) between 100% and 20%)”.
Consider `O=C(Nc1ccc(-c2cnco2)cc1)c1cc2c(Sc3ccc(Cl)cc3)cc(Cl)cc2[nH]1` [I-128, 6-chloro-4-(4-chlorophenylthio)-N-(4-(oxazol-5-yl)phenyl)-1H-indole-2-carboxamide], for which the IC50 in test [1] was under 10 µM. For the same compound, the “ASMS (R3/R0)” value on Rheb is “A (an affinity (R3/R0)>100%)”.
